The test system of experiment [1] is DU-145. The experiment in a line: Inhibition of cell growth by counting cells, DU-145. It counts as cell-based, human. The settings on record: Homo sapiens, DU-145, 72 h, read-out: IC50 (molar) DU-145. Here is the method: 1°.—Inhibition of Cell Growth by Counting Cells.
This form of the assay employs 24 well multidishes of 16 mm diameter (Bergeron, 1984; Schroeder, 1981). The tumor cell lines employed are: P-388 (ATCC CCL 46), suspension culture of a lymphoid neoplasm from a DBA/2 mouse; A-549 (ATCC CCL 185), monolayer culture of a human lung carcinoma; HT-29 (ATCC HTB-38), monolayer culture of a human colon carcinoma; MEL-28 (ATCC HTB-72), monolayer culture of a human melanoma and DU-145 (ATCC HTB-81), monolayer culture of a human prostate carcinoma.
Cells were maintained, in logarithmic phase of growth in Eagle's Minimum Essential Medium, with Earle's Balanced Salts, with non-essential amino acids, with 2.0 mM L-Glutamine, without sodium bicarbonate (EMEM/neaa), supplemented with 10% Fetal Calf Serum (FCS), 10^−2 M. sodium bicarbonate and 0.1 U/l penicillin G+0.1 g/l streptomycin sulfate. For the experiments, cells are harvested from subconfluent cultures using trypsin and resuspended in fresh medium before plating.
A-549, HT-29, MEL-28 and DU-145 cells were seeded into 16 mm diameter wells at 1×10^4 cells per well in 1 ml aliquots of EMEM 5% FCS containing different concentrations of the sample to be tested. A separate set of cultures without drug was seeded as control of growth, to ensure that cells remained in exponential phase of growth. All determinations are carrying out in duplicate. After three days of incubation at 37° C., 5% CO2 in a 98% humid atmosphere cells were stained with 0.1% crystal violet. An approximately IC50 was determined by comparing the growth in wells with drug to the growth in wells control.
For quantifying the activity, after the incubation time, cells are trypsinized and counted in a Coulter Counter ZM. All counts (net cells per well), represent the average of duplicate wells. % G, percent of growth relative to cultures without drug. The results of these assays are used to generate dose-response curves from which more precise IC50 values are determined (sample concentration which produces 50% cell growth inhibition).
Obtained results may predict the usefulness of a certain drug as a potential cancer treatment. For this technique, compounds which show IC50 values smaller than 1 μg/ml are selected to continue with further studies. IC50's data allow to predict that not only could a drug be cystostatic, but also it could have a potential in terms of tumor reduction.

Experiment [2] relates to A-549. The experiment in a line: Inhibition of cell growth by counting cells, A-549. In kind it is cell-based, human. The settings on record: Homo sapiens, A549, 72 h, read-out: IC50 (molar) A-549. The method, boiled down: (§1)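 Human tumor cells were seeded at 1×10^4 cells per well in EMEM with 5% FCS containing graded compound concentrations, in duplicate, and incubated three days at 37° C, 5% CO2. Cells were then trypsinized and counted electronically; IC50 came from dose-response curves of percent growth versus drug-free controls.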

Experiment [3] deals with MEL-28. The experiment in a line: Inhibition of cell growth by counting cells, MEL-28. It counts as cell-based, human. The settings on record: Homo sapiens, SK-MEL-28, 72 h, read-out: IC50 (molar) MEL-28. The method, boiled down: as §1
Experiment [4] concerns HT-29. Description: Inhibition of cell growth by counting cells, HT-29. In kind it is cell-based, human. The settings on record: Homo sapiens, HT-29, 72 h, read-out: IC50 (molar) HT-29. An outline of the steps:
as §1

The test system of experiment [5] is P-388. The experiment in a line: Inhibition of cell growth by counting cells, P-388. The settings on record: Mus musculus, P388, 72 h, read-out: IC50 (molar) P-388. It counts as cell-based, mouse. An outline of the steps: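 Mouse P-388 lymphoid neoplasm suspension cells seeded at 1×10^4 cells/well in EMEM 5% FCS containing graded sample concentrations, in duplicate alongside drug-free growth controls. Cells counted by Coulter counter; % growth vs untreated gives dose-response curves, IC50 = concentration producing 50% growth inhibition.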

Molecules are shown by their SMILES. Read-outs that look alike come from different tables or passages of the source.

A word on the IC50: it is the concentration that gives 50% inhibition.

Regarding `COc1cc2c(cc1OC(=O)OC(C)(C)C)CCN[C@]21CS[C@@H]2c3c(OC(C)=O)c(C)c4c(c3[C@H](COC1=O)N1C2[C@H]2c3c(cc(C)c(OC)c3O)C[C@@H]([C@@H]1O)N2C)OCO4` (stereo partly shown) [Compound 66], the IC50 in experiment [1] (three days of incubation), in experiment [2] (three days of incubation), in experiment [3] (three days of incubation), in experiment [4] (three days of incubation) and in experiment [5] (three days of incubation) was 0.116 nM in each case.
In the case of `CCCOc1cc2c(cc1OC)[C@@]1(CS[C@@H]3c4c(OC(C)=O)c(C)c5c(c4[C@H](COC1=O)N1C3[C@H]3c4c(cc(C)c(OC)c4O)C[C@@H]([C@@H]1O)N3C)OCO5)NCC2` (stereo partly shown) [Compound 69], the IC50 in experiment [1] (three days of incubation) is 0.623 nM; in experiment [2] (three days of incubation) it was 0.623 nM; in experiment [3] (three days of incubation), 0.623 nM; in experiment [4] (three days of incubation) it was 0.623 nM; in experiment [5] (three days of incubation), 0.125 nM.
Consider `COc1cc2c(cc1OCc1ccccc1)CCN[C@]21CS[C@@H]2c3c(OC(C)=O)c(C)c4c(c3[C@H](COC1=O)N1C2[C@H]2c3c(cc(C)c(OC)c3O)C[C@@H]([C@@H]1O)N2C)OCO4` (stereo partly shown) [Compound 71], for which the 50% inhibitory concentration (IC50) in experiment [1] (three days of incubation), in experiment [2] (three days of incubation), in experiment [3] (three days of incubation), in experiment [4] (three days of incubation) and in experiment [5] (three days of incubation) was 0.588 nM each time.
In the case of `CCCCCCCCCCCCCCCC(=O)Oc1cc2c(cc1OC)[C@@]1(CS[C@@H]3c4c(OC(C)=O)c(C)c5c(c4[C@H](COC1=O)N1C3[C@H]3c4c(cc(C)c(OC)c4OC(=O)CCCCCCCCCCCCCCC)C[C@@H]([C@@H]1O)N3C)OCO5)NCC2` (stereo partly shown) [Compound 83], the IC50 in experiment [1] (three days of incubation), in experiment [2] (three days of incubation), in experiment [3] (three days of incubation), in experiment [4] (three days of incubation) and in experiment [5] (three days of incubation) was 80.8 nM each time.
In the case of `CCOc1cc2c(cc1OC)[C@@]1(CS[C@@H]3c4c(OC(C)=O)c(C)c5c(c4[C@H](COC1=O)N1C3[C@H]3c4c(cc(C)c(OC)c4OCC)C[C@@H]([C@@H]1O)N3C)OCO5)NCC2` (stereo partly shown) [Compound 88], the IC50 in experiment [1] (three days of incubation), in experiment [2] (three days of incubation), in experiment [3] (three days of incubation), in experiment [4] (three days of incubation) and in experiment [5] (three days of incubation) was 12.2 nM in each case.
As for `CCCOc1cc2c(cc1OC)[C@@]1(CS[C@@H]3c4c(OC(C)=O)c(C)c5c(c4[C@H](COC1=O)N1C3[C@H]3c4c(cc(C)c(OC)c4OCCC)C[C@@H]([C@@H]1O)N3C)OCO5)NCC2` (stereo partly shown) [Compound 89], the half-maximal inhibitory concentration (IC50) in experiment [1] (three days of incubation), in experiment [2] (three days of incubation), in experiment [3] (three days of incubation), in experiment [4] (three days of incubation) and in experiment [5] (three days of incubation) was 591 nM in each case.
With `C=CCOc1cc2c(cc1OC)[C@@]1(CS[C@@H]3c4c(OC(C)=O)c(C)c5c(c4[C@H](COC1=O)N1C3[C@H]3c4c(cc(C)c(OC)c4OCC=C)C[C@@H]([C@@H]1O)N3C)OCO5)NCC2` (stereo partly shown) [Compound 90], the IC50 in experiment [1] (three days of incubation), in experiment [2] (three days of incubation), in experiment [3] (three days of incubation), in experiment [4] (three days of incubation) and in experiment [5] (three days of incubation) was 11.9 nM throughout.
As for `COc1cc2c(cc1OCc1ccccc1)CCN[C@]21CS[C@@H]2c3c(OC(C)=O)c(C)c4c(c3[C@H](COC1=O)N1C2[C@H]2c3c(cc(C)c(OC)c3OCc3ccccc3)C[C@@H]([C@@H]1O)N2C)OCO4` (stereo partly shown) [Compound 91], the IC50 in experiment [1] (three days of incubation), in experiment [2] (three days of incubation), in experiment [3] (three days of incubation), in experiment [4] (three days of incubation) and in experiment [5] (three days of incubation) was 106 nM throughout.
In the case of `COc1cc2c(cc1OC(=O)OC(C)(C)C)CCN[C@]21CS[C@@H]2c3c(O)c(C)c4c(c3[C@H](COC1=O)N1C2[C@H]2c3c(cc(C)c(OC)c3O)C[C@@H]([C@@H]1C#N)N2C)OCO4` (stereo partly shown) [Compound 106], the 50% inhibitory concentration (IC50) in experiment [1] (three days of incubation), in experiment [2] (three days of incubation), in experiment [3] (three days of incubation), in experiment [4] (three days of incubation) and in experiment [5] (three days of incubation) was 1.21 nM each time.
Regarding `COc1cc2c(cc1OC(=O)OC(C)(C)C)CCN[C@]21CS[C@@H]2c3c(OC(=O)C(F)(F)F)c(C)c4c(c3[C@H](COC1=O)N1C2[C@H]2c3c(cc(C)c(OC)c3O)C[C@@H]([C@@H]1C#N)N2C)OCO4` (stereo partly shown) [Compound 107], the IC50 in experiment [1] (three days of incubation), in experiment [2] (three days of incubation), in experiment [3] (three days of incubation), in experiment [4] (three days of incubation) and in experiment [5] (three days of incubation) was 1.08 nM each time.
`CCCC(=O)Oc1c(C)c2c(c3c1[C@H]1SC[C@]4(NCCc5cc(OC(=O)OC(C)(C)C)c(OC)cc54)C(=O)OC[C@@H]3N3C1[C@H]1c4c(cc(C)c(OC)c4O)C[C@@H]([C@@H]3C#N)N1C)OCO2` (stereo partly shown) [Compound 111]: the IC50 in experiment [1], in experiment [2] (three days of incubation), in experiment [3] (three days of incubation), in experiment [4] (three days of incubation) and in experiment [5] (three days of incubation) was 1.11 nM in each case.
In the case of `COc1cc2c(cc1OC(=O)OC(C)(C)C)CCN[C@]21CS[C@@H]2c3c(OC(=O)/C=C/c4ccccc4)c(C)c4c(c3[C@H](COC1=O)N1C2[C@H]2c3c(cc(C)c(OC)c3O)C[C@@H]([C@@H]1C#N)N2C)OCO4` (stereo partly shown) [Compound 113], the 50% inhibitory concentration (IC50) in experiment [1] (three days of incubation), in experiment [2] (three days of incubation), in experiment [3] (three days of incubation), in experiment [4] (three days of incubation) and in experiment [5] (three days of incubation) was 10.4 nM each time.
For `CCCCCCCC(=O)Oc1c(C)c2c(c3c1[C@H]1SC[C@]4(NCCc5cc(OC(=O)OC(C)(C)C)c(OC)cc54)C(=O)OC[C@@H]3N3C1[C@H]1c4c(cc(C)c(OC)c4O)C[C@@H]([C@@H]3C#N)N1C)OCO2` (stereo partly shown) [Compound 119], the IC50 in experiment [1] (three days of incubation), in experiment [2] (three days of incubation), in experiment [3] (three days of incubation), in experiment [4] (three days of incubation) and in experiment [5] (three days of incubation) was 10.5 nM in each case.
Regarding `CCCCCCCC(=O)Oc1c(C)c2c(c3c1[C@H]1SC[C@]4(NCCc5cc(OC(=O)OC(C)(C)C)c(OC)cc54)C(=O)OC[C@@H]3N3C1[C@H]1c4c(cc(C)c(OC)c4OC(=O)CCCCCCC)C[C@@H]([C@@H]3C#N)N1C)OCO2` (stereo partly shown) [Compound 120], the IC50 in experiment [1] (three days of incubation), in experiment [2] (three days of incubation), in experiment [3] (three days of incubation), in experiment [4] (three days of incubation) and in experiment [5] (three days of incubation) was 463 nM in each case.
Take `CCCCCCCCCCCCCCCC(=O)Oc1c(C)c2c(c3c1[C@H]1SC[C@]4(NCCc5cc(OC(=O)OC(C)(C)C)c(OC)cc54)C(=O)OC[C@@H]3N3C1[C@H]1c4c(cc(C)c(OC)c4O)C[C@@H]([C@@H]3C#N)N1C)OCO2` (stereo partly shown) [Compound 121]: the half-inhibitory concentration (IC50) in experiment [1] (three days of incubation), in experiment [2] (three days of incubation), in experiment [3] (three days of incubation), in experiment [4] (three days of incubation) and in experiment [5] (three days of incubation) was 469 nM each time.
With `CCCCCCCCCCCCCCCC(=O)Oc1c(C)c2c(c3c1[C@H]1SC[C@]4(NCCc5cc(OC(=O)OC(C)(C)C)c(OC)cc54)C(=O)OC[C@@H]3N3C1[C@H]1c4c(cc(C)c(OC)c4OC(=O)CCCCCCCCCCCCCCC)C[C@@H]([C@@H]3C#N)N1C)OCO2` (stereo partly shown) [Compound 122], the IC50 in experiment [1] (three days of incubation), in experiment [2] (three days of incubation), in experiment [3] (three days of incubation), in experiment [4] (three days of incubation) and in experiment [5] (three days of incubation) was 830 nM each time.
On to `COc1cc2c(cc1OC(=O)OC(C)(C)C)CCN[C@]21CS[C@@H]2c3c(OCc4ccccc4)c(C)c4c(c3[C@H](COC1=O)N1C2[C@H]2c3c(cc(C)c(OC)c3O)C[C@@H]([C@@H]1C#N)N2C)OCO4` (stereo partly shown) [Compound 134], for which the IC50 in experiment [1], in experiment [2], in experiment [3], in experiment [4] and in experiment [5] was 0.544 nM each time.

Source of the values: patent US7759345B2, “Antitumoral derivatives of ET-743” (priority 2001, dated 2010).
